Values quoted from earlier work in patent publication US20130224294A1, “DRY PROCESSING OF ATAZANAVIR” (priority 2010, published 2013).

Legend:
[1] = free base
[2] = at 24±3° C.; base formed by dissociation of the salt in the presence of water

- BCS class (high permeability/low solubility): BCS II
- bioavailability [1]: does not have sufficient bioavailability
- solubility [2]: < 1 µg/mL
SMILES: COC(=O)N[C@H](C(=O)N[C@@H](Cc1ccccc1)[C@@H](O)CN(Cc1ccc(-c2ccccn2)cc1)NC(=O)[C@@H](NC(=O)OC)C(C)(C)C)C(C)(C)C [Atazanavir]
